# Results from ChEMBL document CHEMBL5050844 (2019).
# Tests used:
# Format in all cases: functional, T cell line
# [1] = Induction of anti-CD3/CD28 antibodies-stimulated human T cell activation at 1 uM assessed fold increase in CD25 expression measured by ELISA assay
# [2] = Induction of anti-CD3 antibodies-stimulated human T cell activation at 1 uM assessed fold increase in CD25 expression measured by ELISA assay; also: reference of the scale not given here
# [3] = Induction of anti-CD3/CD28 antibodies-stimulated human T cell activation at 0.3 uM assessed fold increase in IL-2 secretion measured by ELISA assay
# [4] = Induction of anti-CD3 antibodies-stimulated human T cell activation at 8 uM assessed fold increase in CD25 expression measured by ELISA assay; also: reference of the scale not given here
# [5] = Induction of anti-CD3/CD28 antibodies-stimulated human T cell activation at 4 uM assessed fold increase in IL-2 secretion measured by ELISA assay
# [6] = Induction of anti-CD3 antibodies-stimulated human T cell activation at 8 uM assessed fold increase in IL-2 secretion measured by ELISA assay; also: reference of the scale not given here
# [7] = Induction of anti-CD3/CD28 antibodies-stimulated human T cell activation at 4 uM assessed fold increase in CD25 expression measured by ELISA assay
# [8] = Induction of anti-CD3 antibodies-stimulated human T cell activation at 1 uM assessed fold increase in IL-2 secretion measured by ELISA assay; also: reference of the scale not given here
# [9] = Induction of anti-CD3/CD28 antibodies-stimulated human T cell activation at 0.3 uM assessed fold increase in CD25 expression measured by ELISA assay
# [10] = Induction of anti-CD3/CD28 antibodies-stimulated human T cell activation at 1 uM assessed fold increase in IL-2 secretion measured by ELISA assay
SMILES,fold change (FC) [1],fold change (FC) [2],fold change (FC) [3],fold change (FC) [4],fold change (FC) [5],fold change (FC) [6],fold change (FC) [7],fold change (FC) [8],fold change (FC) [9],fold change (FC) [10]
C[C@H](Cc1nncn1C)c1cc(NC2COC2)cc(N2Cc3c(cccc3C(F)(F)F)C2=O)c1,1.01,0.601,<=1,0.801,1.01,0.051,1.01,0.051,1.01,1.01
"C[C@H](Cc1nncn1C)c1cc(NC2CCOC2)nc(N2Cc3c(cccc3C(F)(F)F)C2=O)c1 (single isomer, unassigned)",1.01,0.601,1.01,0.801,1.01,0.151,1.01,0.051,<=1,1.01
Cn1cnnc1[C@H]1CC[C@H]1c1cccc(N2Cc3c(cccc3C(F)(F)F)C2=O)c1 (racemic),<=1,<=0.6,<=1,<=0.6,1.01,0.101,1.01,<=0.05,<=1,1.01
"Cc1c[nH]nc1C[C@H](C)c1cccc(N2Cc3c(cccc3C(F)(F)F)C2=O)c1 (single isomer, unassigned)",1.01,0.601,1.01,0.801,1.01,0.151,1.01,0.101,1.01,1.01
Cc1[nH]cnc1CC(C)c1cccc(N2Cc3c(cccc3C(F)(F)F)C2=O)c1 (stereo not given),<=1,<=0.6,<=1,<=0.6,<=1,0.101,1.01,0.101,<=1,<=1
Cc1nc(C(=O)Nc2cccc([C@H](C)Sc3nncn3C)c2)ccc1Cl,1.01,<=0.6,2.51,0.801,>=7.5,0.051,1.01,<=0.05,<=1,5
CC(C)c1cccc(C(=O)Nc2cccc([C@H](C)Sc3nncn3C)c2)n1,1.01,<=0.6,2.51,0.801,>=7.5,<=0.05,1.01,<=0.05,1.01,2.51
C[C@H](Cc1nncn1C)c1cccc(NC(=O)c2cc(C(=O)N3CC[C@](C)(O)C3)ccn2)c1,1.31,<=0.6,<=1,<=0.6,<=1,<=0.05,1.51,<=0.05,1.51,<=1
CN1CCN(c2cc3c(c(C(F)(F)F)c2)CN(c2cccc([C@@](C)(F)C(F)(F)c4nncn4C)c2)C3=O)CC1,1.01,0.601,1.01,>=1.001,2.51,0.151,1.01,0.051,1.01,1.01
C[C@H](Cc1nncn1C)c1cccc(NC(=O)c2cccc(C(F)(F)CO)n2)c1,1.31,<=0.6,<=1,<=0.6,<=1,0.051,>=1.76,<=0.05,1.01,<=1
C[C@H](Cc1nncn1C)c1cccc(NC(=O)c2coc(C(F)(F)F)n2)c1,1.01,0.601,<=1,0.801,1.01,0.101,1.01,0.051,1.01,1.01
C[C@H](Cc1nncn1C)c1cccc(N2Cc3c(cc([C@@H]4CCCNC4)cc3C(F)(F)F)C2=O)c1,1.31,0.601,2.51,>=1.001,5,>=0.201,1.51,0.101,1.01,5
C[C@H](Cc1nncn1C)c1cccc(NC(=O)c2cc(C3(O)COC3)cc(C(F)(F)F)n2)c1,>=1.76,0.601,<=1,>=1.001,5,0.101,>=1.76,<=0.05,>=1.76,1.01
